In patent US11623931B2, “Bicyclic compounds for diagnosis and therapy” (AC IMMUNE SA, priority 2016, dated 2023):

Tests used:
[1] = test system: Aβ plaques on AD sections; assay: Assay 1 (fluorescence based assay): direct staining of human Alzheimer's disease brain sections; assay type: binding; parameters: key: − (No); +/− (very weak); + (weak); ++ (good); +++ (strong); details: staining intensity; compound 100 μM, frozen amygdala sections, AD Braak stage V-VI
Experimental: Direct Staining of Compounds of this Invention to Human Alzheimer's Disease Brain Sections 20 μm frozen sections from amygdala were purchased from an external provider (Tissue Solutions Ltd.). Donors were diagnosed with AD, Braak stage V-VI (Braak et al., Neurobiol. Aging, 1995, 16, 271-284) and thus with confirmed Aβ pathology. Sections were kept at −80° C. until start of the experiment. Brain sections were encircled with pap pen liquid blocker to reduce the volume of solution for the different incubations. Sections were fixed for 15 min at 4° C. with 4% paraformaldehyde and washed three times for 5 minutes with PBS at room temperature. Test compounds were incubated on the sections at 100 μM in 50% ethanol in water for 30 min at room temperature, followed by three washes of 5 minutes with PBS. Sections were then saturated and permeabilized in blocking buffer (PBS, 10% NGS, 0.25% Triton) for 1 hour at room temperature and then incubated for 2 hours at room temperature with the primary antibodies against AR, 4G8, (Covance, SIG-39220), diluted 1/250 in PBS, 5% NGS, and 0.25% Triton. After three washes in PBS, the sections were incubated for 30 minutes at room temperature with a secondary anti-mouse antibody labeled with AlexaFluor555 (Invitrogen A21422) and further washed three times in PBS. To reduce auto-fluorescence of the tissue, the sections were incubated in a solution of 0.1% Sudan Black (Sigma 199664) in 70% ethanol for 15 min at room temperature, followed by four washes with PBS and mounted under cover slips using ProLong Gold Antifade reagent (Invitrogen P36930). Sections were analyzed on the Nikon Eclipse Ti microscope to detect staining and imaged using Nikon DS-Fi2 camera and NIS-Element AR4.13.1 software.

[2] = molecular target: T1, aSyn aggregates on PD sections (Homo sapiens, UniProt P37840); assay: Assay 1 (fluorescence based assay): direct staining of human Parkinson's disease brain sections; assay type: binding; parameters: key: − (No); +/− (very weak); + (weak); ++ (good); +++ (strong); details: staining intensity; compound 100 μM, frozen amygdala sections, PD Braak stage V-VI
T1 construct: 20 μm frozen sections from amygdala were purchased from an external provider (Tissue Solutions Ltd.); tissue Tissue Solutions Ltd; host or cells: human PD amygdala, frozen sections, Braak stage V-VI
Excerpt: Assay 1 (Fluorescence Based Assay):
Direct Staining of Compounds of this Invention to Human Parkinson's Disease Brain Sections
20 μm frozen sections from amygdala were purchased from an external provider (Tissue Solutions Ltd.). Donors were diagnosed with PD, Braak stage V-VI (Braak et al., Neurobiol. Aging, 2003, 24, 197-211) and thus with confirmed aSyn pathology. PD donors, Braak stage V-VI with mixed pathology, containing aSyn aggregates as well as Aβ plaques, were also used in this assay. Sections were kept at −80° C. until start of the experiment.
Brain sections were encircled with pap pen liquid blocker to reduce the volume of solution for the different incubations. Sections were fixed for 15 min at 4° C. with 4% paraformaldehyde and washed three times for 5 minutes with PBS (phosphate buffered saline) at room temperature. Test compounds were incubated on the sections at 100 μM in 50% ethanol in water for 30 min at room temperature, followed by three washes of 5 minutes with PBS. Sections were then saturated and permeabilized in blocking buffer (PBS, 10% NGS, 0.25% Triton) for 1 hour at room temperature and then incubated for 2 hours at room temperature with the primary antibodies against aSyn: aSyn-211 (SantaCruz Biotechnology sc-12767) or aSyn-pS129 (Abcam AB51253), and primary antibody against AR, 4G8, (Covance, SIG-39220). All primary antibodies diluted 1/250 in PBS, 5% NGS, 0.25% Triton. After three washes in PBS, the sections were incubated for 30 minutes at room temperature with a secondary anti-mouse antibody labeled with AlexaFluor555 (Invitrogen A21422) or anti-rabbit antibody labeled with AlexaFluor555 (Invitrogen A21428) and further washed three times in PBS. To reduce auto-fluorescence of the tissue, the sections were incubated in a solution of 0.1% Sudan Black (Sigma 199664) in 70% ethanol for 15 min at room temperature, followed by four washes with PBS and mounted under cover slips using ProLong Gold Antifade reagent (Invitrogen P36930).
Sections were analyzed on the Nikon Eclipse Ti microscope to detect staining and imaged using Nikon DS-Fi2 camera and NIS-Element AR4.13.1 software.

Compound | Staining of aSyn aggregates on PD sections [2] | Staining of Aβ plaques on AD sections [1]
COc1ccc(/C=C/c2ccc3cc(-c4ccc(OCCF)cc4)sc3n2)cc1 [Example 13] | ++ | +++
COc1ccc(/C=C/c2ccc3cc(-c4cccnc4)sc3n2)cc1 [Example 15] | +++ | +++
COc1cccc(/C=C/c2ccc3cc(-c4cccnc4)sc3n2)c1 [Example 16] | ++ | ++
c1cncc(-c2cc3ncc(-c4ccc(N5CCCC5)nc4)cc3s2)c1 [Example 18] | +++ | +++
c1cncc(-c2ccc3nc(-c4ccc(N5CCCC5)nc4)sc3c2)c1 [Example 19] | +++ | +++
Cn1cc(-c2ccc3sc(-c4ccc(N5CCCC5)nc4)nc3c2)cn1 [Example 20] | + | −
c1ccc(-c2cc3ccc(-c4ccc(N5CCCC5)nc4)nc3s2)nc1 [Example 21] | ++ | ++
c1cncc(-c2cnc3sc(-c4ccc(N5CCCC5)nc4)nc3c2)c1 [Example 23] | ++ | +
c1cncc(-c2cc3nc(-c4ccc(N5CCCC5)nc4)sc3cn2)c1 [Example 24] | ++ | +
c1n[nH]cc1-c1cc2nc(-c3ccc(N4CCCC4)nc3)sc2cn1 [Example 25] | ++ | +
Fc1cncc(-c2ccc3sc(-c4ccc(N5CCCC5)nc4)cc3n2)c1 [Example 28] | + | +
CN(C)c1ncc(-c2ccc3cc(-c4cccnc4)sc3n2)cn1 [Example 29] | + | ++
c1cncc(-c2cc3ccc(-c4ccc(N5CCCC5)nc4)nc3s2)c1 [Example 32] | +++ | +++
Fc1ncccc1-c1cc2ccc(-c3ccc(N4CCCC4)nc3)nc2s1 [Example 34] | ++ | +++
c1ncc(-c2cc3ccc(-c4ccc(N5CCCC5)nc4)nc3s2)cn1 [Example 35] | ++ | ++
c1cncc(-c2ccc3nc(-c4ccc(N5CCCC5)nc4)sc3n2)c1 [Example 38] | +++ | +++
c1cncc(-c2ccc3sc(-c4ccc(N5CCCC5)nc4)nc3c2)c1 [Example 39] | + | +
Fc1ccncc1-c1ccc2sc(-c3ccc(N4CCCC4)nc3)nc2c1 [Example 40] | +++ | +
Cn1cc(-c2ccc3sc(-c4ccc(N5CCCC5)nc4F)nc3c2)cn1 [Example 42] | + | +
F[C@@H]1CCN(c2ccc(-c3ccc4sc(-c5cccnc5)cc4n3)cn2)C1 [Example 44] | + | −
F[C@@H]1CCN(c2ccc(-c3ccc4cc(-c5cccnc5)sc4n3)cn2)C1 [Example 45] | + | ++
F[C@@H]1CCN(c2ccc(-c3cc4nc(-c5cccnc5)ccc4s3)cn2)C1 [Example 46] | + | +
FC1CCN(c2ccc(-c3ccc4cc(-c5cccnc5)sc4n3)cn2)CC1 [Example 48] | ++ | +
OCCOC1CCN(c2ccc3cc(-c4cccnc4)sc3n2)CC1 [Example 49] | ++ | ++
CN(C)c1ccc(-c2cc3ccc(-c4ccc(N5CCC(F)CC5)nc4)nc3s2)cn1 [Example 50] | ++ | +
Cn1cc(-c2ccc3sc(-c4ccc(N5CC[C@@H](F)C5)nc4)cc3n2)cn1 [Example 51] | ++ | +
Cn1cc(-c2ccc3sc(-c4ccc(N5CC[C@@H](F)C5)nc4)nc3c2)cn1 [Example 52] | + | −
Cn1cc(-c2ccc3sc(-c4ccc(N5CC[C@H](F)C5)nc4)nc3c2)cn1 [Example 53] | + | +

Continued, in another order:

Staining of aSyn aggregates on PD sections [2] | Compound | Staining of Aβ plaques on AD sections [1]
++ | CNc1ccc(-c2ccc3cc(-c4cccc(OC)c4O)sc3n2)cn1 [Example 3] | ++
+ | CNc1ccc(-c2ccc3cc(-c4ccc(C#N)cn4)sc3n2)cn1 [Example 5] | +
++ | CNc1ccc(-c2ccc3cc(-c4ccccc4OC)sc3n2)cn1 [Example 7] | +++
++ | CNc1ccc(-c2ccc3cc(-c4ccc(F)nc4)sc3n2)cn1 [Example 8] | +++
++ | CNc1ccc(-c2ccc3cc(-c4cccc(OC)c4)sc3n2)cc1 [Example 9] | ++
+ | CNc1ccc(-c2cc3ccc(-c4ccc(OCCF)cc4)nc3s2)cc1 [Example 10] | +++
+ | CNc1ccc(-c2ccc3cc(-c4ccc(OCCF)cc4)sc3n2)cc1 [Example 11] | ++
+ | FCCOc1ccc(-c2cc3ccc(-c4ccc(F)nc4)nc3s2)cc1 [Example 12] | ++
++ | CNc1ccc(-c2ccc3cc(-c4cccnc4)sc3n2)cc1 [Example 14] | +++
++ | CNc1ccc(-c2ccc3cc(-c4ccc(OC)c(O)c4)sc3n2)cc1 [Example 30] | ++
+ | CNc1ccc(-c2ccc3cc(-c4ccnc(OC)c4)sc3n2)cc1 [Example 31] | ++
+++ | c1cncc(-c2cc3ccc(-c4ccc(N5CCOCC5)cc4)nc3s2)c1 [Example 33] | +
+++ | CN(C)c1ccc(-c2cc3ccc(-c4ccc(F)nc4)nc3s2)cn1 [Example 36] | +++
++ | CN(C)c1ccc(-c2ccc3cc(-c4ccc(N(C)C)nc4)sc3n2)cn1 [Example 37] | +
+++ | CNc1ccc(-c2ccc3cc(-c4cccnc4)sc3n2)cn1 [Example 47] | +++
